Laboratory results reported in the supplement of paper PMC10307832.

How the values were obtained:
Test in all cases: relative viability (nuclei count vs DMSO), 5 days (fraction); higher = more cells survive
Avagacestat + Bortezomib = compound: NC(=O)[C@@H](CCC(F)(F)F)N(Cc1ccc(-c2ncon2)cc1F)S(=O)(=O)c1ccc(Cl)cc1 [Avagacestat] + CC(C)C[C@H](NC(=O)[C@H](Cc1ccccc1)NC(=O)c1cnccn1)B(O)O [Bortezomib] (partner 0.002 µM)
Outline: (§1)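 Five library-drug doses in √10 steps were combined with a fixed anchor-drug dose, or a single drug was given alone, by pin tool to lung cancer cell lines in 1536-well plates the day after seeding. Nuclei were stained and counted after 5 days. Relative viability is the nuclei count in treated wells over that in vehicle wells, taken as the median of duplicate plates.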

Avagacestat + Trametinib = compound: NC(=O)[C@@H](CCC(F)(F)F)N(Cc1ccc(-c2ncon2)cc1F)S(=O)(=O)c1ccc(Cl)cc1 [Avagacestat] + CC(=O)Nc1cccc(-n2c(=O)n(C3CC3)c(=O)c3c(Nc4ccc(I)cc4F)n(C)c(=O)c(C)c32)c1 [Trametinib] (partner 0.02 µM)
Outline: as §1

Avagacestat + Olaparib = compound: NC(=O)[C@@H](CCC(F)(F)F)N(Cc1ccc(-c2ncon2)cc1F)S(=O)(=O)c1ccc(Cl)cc1 [Avagacestat] + O=C(c1cc(Cc2n[nH]c(=O)c3ccccc23)ccc1F)N1CCN(C(=O)C2CC2)CC1 [Olaparib] (partner 8 µM)
Outline: as §1

Avagacestat + Pictilisib = compound: NC(=O)[C@@H](CCC(F)(F)F)N(Cc1ccc(-c2ncon2)cc1F)S(=O)(=O)c1ccc(Cl)cc1 [Avagacestat] + CS(=O)(=O)N1CCN(Cc2cc3nc(-c4cccc5[nH]ncc45)nc(N4CCOCC4)c3s2)CC1 [Pictilisib] (partner 1 µM)
Outline: as §1

Row | Cell Line | relative viability (Avagacestat + Bortezomib; first compound 0.08 µM) | relative viability (Avagacestat + Bortezomib; first compound 0.253 µM) | relative viability (Avagacestat + Bortezomib; first compound 0.8 µM) | relative viability (Avagacestat + Bortezomib; first compound 2.53 µM) | relative viability (Avagacestat + Bortezomib; first compound 8 µM) | relative viability (Avagacestat + Trametinib; first compound 0.08 µM) | relative viability (Avagacestat + Trametinib; first compound 0.253 µM) | relative viability (Avagacestat + Trametinib; first compound 0.8 µM) | relative viability (Avagacestat + Trametinib; first compound 2.53 µM) | relative viability (Avagacestat + Trametinib; first compound 8 µM) | relative viability (Avagacestat + Olaparib; first compound 0.08 µM) | relative viability (Avagacestat + Olaparib; first compound 0.253 µM) | relative viability (Avagacestat + Olaparib; first compound 0.8 µM) | relative viability (Avagacestat + Olaparib; first compound 2.53 µM) | relative viability (Avagacestat + Olaparib; first compound 8 µM) | relative viability (Avagacestat + Pictilisib; first compound 0.08 µM) | relative viability (Avagacestat + Pictilisib; first compound 0.253 µM) | relative viability (Avagacestat + Pictilisib; first compound 0.8 µM) | relative viability (Avagacestat + Pictilisib; first compound 2.53 µM) | relative viability (Avagacestat + Pictilisib; first compound 8 µM)
1 | NCI-H838 | 0.977 | 0.922 | 0.93 | 0.863 | 0.502 | 0.534 | 0.607 | 0.559 | 0.442 | 0.495 | 1.08 | 0.87 | 0.881 | 0.805 | 0.575 | 0.504 | 0.405 | 0.568 | 0.411 | 0.319
2 | NCI-H1355 | 1.37 | 1.38 | 1.33 | 1.14 | 1.1 | 0.449 | 0.393 | 0.447 | 0.386 | 0.366 | 0.851 | 0.778 | 0.73 | 0.691 | 0.718 | 0.442 | 0.423 | 0.421 | 0.385 | 0.418
3 | NCI-H1437 | 0.602 | 0.69 | 0.519 | 0.379 | 0.282 | 0.518 | 0.668 | 0.575 | 0.398 | 0.436 | 0.804 | 0.743 | 0.696 | 0.667 | 0.543 | 0.388 | 0.399 | 0.417 | 0.399 | 0.366
4 | NCI-H1650 | 0.212 | 0.232 | 0.196 | 0.211 | 0.21 | 0.696 | 0.614 | 0.73 | 0.678 | 0.588 | 0.961 | 0.893 | 0.86 | 0.917 | 0.936 | 0.693 | 0.577 | 0.552 | 0.542 | 0.476
5 | NCI-H1651 | 1.06 | 1.07 | 1.05 | 0.944 | 0.933 | 0.884 | 0.93 | 0.838 | 0.842 | 0.813 | 0.219 | 0.188 | 0.179 | 0.19 | 0.19 | 0.566 | 0.576 | 0.711 | 0.585 | 0.368
6 | NCI-H1666 | 0.942 | 0.78 | 0.861 | 0.83 | 0.842 | 1.29 | 1.04 | 1.02 | 0.991 | 0.748 | 0.843 | 0.863 | 0.808 | 0.955 | 0.758 | 0.416 | 0.445 | 0.499 | 0.48 | 0.49
7 | NCI-H1734 | 1.26 | 1.01 | 1.01 | 1.01 | 0.945 | 0.776 | 0.796 | 0.682 | 0.71 | 0.633 | 0.731 | 0.747 | 0.614 | 0.574 | 0.633 | 0.538 | 0.483 | 0.462 | 0.419 | 0.418
